Results as given in patent US20070054838A1, “METHOD FOR IMPROVING DIAGNOSTIC QUALITY IN ECHOCARDIOGRAPHY” (priority 2005, published 2007).

Legend:
[1] = test system: hyperpolarisation activated, cAMP-modulated cation current channels (HCN); details: cardiac conductive tissues; cited from earlier work
[2] = pharmacokinetic studies of oral cilobradine in cats; format: in vivo
Procedure: (§1) For example, the following dosages relevant for practicing the present invention with the bradycardic agent cilobradine in cats and dogs, have been determined in appropriate pharmacokinetic studies performed by the inventors. The single oral dose of cilobradine for potent heart rate reduction in cats is 0.2-0.4 mg/kg. The single oral dose of cilobradine for potent heart rate reduction in dogs is 0.3 mg/kg. […] Peak plasma levels are reached 0.5 hours after oral administration in cats and after 1 to 2 hours in dogs.

[3] = test system: cats suffering from asymptomatic HCM; assay: clinical field study, echocardiography in cats suffering from asymptomatic HCM; format: in vivo; details: during treatment, days 3 and 6; orally once daily for 5 days; four cats; at baseline not possible in 2 of 4 cats
Procedure: The use according to the invention of an If channel blocker, namely cilobradine, was investigated in a clinical field study with cats suffering from asymptomatic HCM.
Four cats diagnosed as suffering from asymptomatic HCM by means of motion mode […] (left ventricular wall thickness>6 mm), received cilobradine orally once daily for 5 consecutive days. Detailed clinical examinations were conducted at baseline and on days 1, 2, 3, 6 and 9. ECG measurements were performed at baseline and on days 3 and 6 of the study.
The composition used in the experiment was as follows. • Oral solution containing 2 mg/ml cilobradine • Active ingredient added to 0.9% NaCl solution
The results of the experiment, measuring the left ventricular E to A ratios obtained at baseline and under cilobradine treatment, are shown in enclosed FIG. 1.

[4] = pharmacokinetic studies of oral cilobradine in dogs; format: in vivo
Procedure: as §1

| SMILES | Block of HCN channels (If current) [1] | Time at which peak plasma levels are reached ([2]; after oral administration) | Absolute bioavailability of oral formulations ([2]; oral) | Single oral dose for potent heart rate reduction ([2]; oral) | Calculation of left ventricular E/A ratios [3] | Absolute bioavailability of oral formulations [4] | Single oral dose for potent heart rate reduction [4] |
| --- | --- | --- | --- | --- | --- | --- | --- |
| COc1ccc(CCN(C)CCCN2CCc3cc(OC)c(OC)cc3CC2=O)cc1OC [zatebradine] | selectively block |  |  |  |  |  |  |
| COc1ccc(CCN2CCCC(CN3CCc4cc(OC)c(OC)cc4CC3=O)C2)cc1OC (centres unmarked) [cilobradine] | selectively block | 0.5 h | 22.6% | 0.2 to 0.4 mg/kg | possible in all cats | 26-43% | 0.3 mg/kg |
